What follows are compounds tested against T1, Mitogen-activated protein kinase 1 (Homo sapiens, UniProt P28482) (assay: Binding affinity to ERK2 (unknown origin) by surface plasmon resonance assay).
T1 sequence (P28482 whole entry): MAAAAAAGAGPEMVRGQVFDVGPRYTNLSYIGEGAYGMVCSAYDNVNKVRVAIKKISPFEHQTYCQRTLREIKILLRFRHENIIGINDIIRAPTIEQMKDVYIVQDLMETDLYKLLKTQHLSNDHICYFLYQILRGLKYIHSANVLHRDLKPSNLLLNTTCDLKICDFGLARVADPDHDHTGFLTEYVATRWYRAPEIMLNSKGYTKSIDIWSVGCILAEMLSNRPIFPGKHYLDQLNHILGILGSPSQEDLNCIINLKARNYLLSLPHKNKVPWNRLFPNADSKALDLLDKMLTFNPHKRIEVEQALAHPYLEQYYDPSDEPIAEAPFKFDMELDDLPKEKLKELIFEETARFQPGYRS

| SMILES | Kd |
| --- | --- |
| c1ccc(CNc2ncnc3nc[nH]c23)cc1 [6-BENZYLAMINOPURINE] | 247 µM |
| c1cnc2[nH]ccc2n1 | 343 µM |

Now from value to compound:

| Kd | SMILES |
| --- | --- |
| 125 µM | Brc1cnc2[nH]cc(I)c2n1 |
| 319 µM | Brc1cnc2[nH]ccc2n1 |
| 97 µM | Brc1c[nH]c2nccnc12 |

What follows are compounds tested against T1, Mitogen-activated protein kinase 1 (assay: Inhibition of ERK2 (unknown origin) using 5FAM-IPTSPITTTYFFFKKK as substrate after 1 hr by LC3K assay).

| SMILES | IC50 |
| --- | --- |
| Fc1cc(-c2cnc3[nH]ccc3n2)ccn1 | 21600 nM |
| c1cc(-c2cnc3[nH]cc(-c4cncnc4)c3n2)ccn1 | 2200 nM |
| Cn1cc(-c2cnc3[nH]ccc3n2)cn1 | 22500 nM |
| Clc1ccc(-c2c[nH]c3ncc(-c4ccncc4)nc23)cn1 | 182 nM |
| CCCn1cc(-c2c[nH]c3ncc(-c4ccncc4)nc23)cn1 | 71 nM |
| CC(C)Cn1cc(-c2c[nH]c3ncc(-c4ccncc4)nc23)cn1 | 91 nM |
| CCn1cc(-c2c[nH]c3ncc(-c4ccncc4)nc23)cn1 | 149 nM |
| c1cc2nc(-c3ccc4cn[nH]c4c3)cnc2[nH]1 | 31900 nM |
| c1ccc(-c2cnc3[nH]ccc3n2)cc1 | 50100 nM |
| Cc1n[nH]cc1-c1cnc2[nH]ccc2n1 | 22200 nM |
| c1ncc(-c2c[nH]c3ncc(-c4cn[nH]c4)nc23)cn1 | 1050 nM |
| c1cc(-c2cnc3[nH]cc(-c4cnn(CCN5CCOCC5)c4)c3n2)ccn1 | 416 nM |
| Nc1ccc(-c2c[nH]c3ncc(-c4ccncc4)nc23)cn1 | 468 nM |
| c1ccc(CCn2cc(-c3c[nH]c4ncc(-c5ccncc5)nc34)cn2)cc1 | 2000 nM |
| OCCCn1cc(-c2c[nH]c3ncc(-c4ccncc4)nc23)cn1 | 623 nM |

Other lines, results leading:

| IC50 | SMILES |
| --- | --- |
| > 200000 nM | NC(=O)c1cccc(-c2cnc3[nH]ccc3n2)c1 |
| 44100 nM | NC(=O)c1ccc(-c2cnc3[nH]ccc3n2)cc1 |
| 71500 nM | c1cncc(-c2cnc3[nH]ccc3n2)c1 |
| 280 nM | c1cncc(-c2c[nH]c3ncc(-c4cn[nH]c4)nc23)c1 |
| > 200000 nM | Oc1cccc(-c2cnc3[nH]ccc3n2)c1 |
| 407 nM | c1cncc(-c2cnc3[nH]cc(-c4cccnc4)c3n2)c1 |
| 11700 nM | c1cc(-c2cnc3[nH]ccc3n2)ccn1 |
| 14000 nM | Cc1n[nH]c(C)c1-c1cnc2[nH]ccc2n1 |
| 940 nM | c1cc(-c2cnc3[nH]cc(-c4ccn[nH]4)c3n2)ccn1 |
| 5900 nM | c1cc2nc(-c3cn[nH]c3)cnc2[nH]1 |
| > 200000 nM | Brc1cnc2[nH]ccc2n1 |
| 634 nM | Cc1ccc(-c2c[nH]c3ncc(-c4ccncc4)nc23)cn1 |
| 89700 nM | COc1ccc(-c2cnc3[nH]ccc3n2)cc1 |
| 12400 nM | Oc1ccc(-c2cnc3[nH]ccc3n2)cc1 |
| 354 nM | c1cc(-c2cnc3[nH]cc(-c4cn[nH]c4)c3n2)ccn1 |
| 29700 nM | Fc1ccc(-c2cnc3[nH]ccc3n2)cc1 |
| 37 nM | c1ccc(Cn2cc(-c3c[nH]c4ncc(-c5ccncc5)nc34)cn2)cc1 |
| 252 nM | COc1ccc(-c2c[nH]c3ncc(-c4ccncc4)nc23)cn1 |

These compounds were tested against T1, Mitogen-activated protein kinase 1 (assay: Inhibition of human recombinant ERK2 expressed in Escherichia coli using Omnia peptide S/T17 as substrate measured every 50 seconds for 30 mins).

| IC50 | SMILES |
| --- | --- |
| 72 nM | Cn1cc(-c2c[nH]c3ncc(-c4ccncc4)nc23)cn1 |

— ChEMBL document CHEMBL3627630, “Fragment-based discovery of potent ERK2 pyrrolopyrazine inhibitors” (Bioorg Med Chem Lett, 2015)
